# Results reported in the Deep4Chem optical property database.
# Assay: photoluminescence quantum yield (fraction); solvent given as SMILES
# [1] = in c1ccc2c(c1)c1ccccc1n2-c1ccc(-c2ccc(-n3c4ccccc4c4ccccc43)cc2)cc1
compound,measurement,setting,value
COc1ccc(C2CC(c3ccc(O)cc3)=NN2c2ccc(S(N)(=O)=O)cc2)cc1 (stereo unspecified),photoluminescence quantum yield,in C1CCOC1,0.78
same,photoluminescence quantum yield,in C1COCCO1,0.73
same,photoluminescence quantum yield,in CC#N,0.7
same,photoluminescence quantum yield,in CC(C)O,0.55
same,photoluminescence quantum yield,in CCO,0.47
same,photoluminescence quantum yield,in CCOC(C)=O,0.76
same,photoluminescence quantum yield,in CN(C)C=O,0.87
same,photoluminescence quantum yield,in CO,0.38
same,photoluminescence quantum yield,in CS(C)=O,0.88
same,photoluminescence quantum yield,in O,0.54
C[Si](C)(C)C#CC#Cc1ccc2c3cccc4cccc(c5cccc1c52)c43,photoluminescence quantum yield,in C1CCCCC1,0.51
COC(=O)C[C@H](Cc1c[nH]c2ccccc12)NC(=O)[C@H](CC(=O)N[C@@H](CC1=CCc2ccccc21)C(=O)OC)NC(=O)OC(C)(C)C,photoluminescence quantum yield,in CC#N,0.37
same,photoluminescence quantum yield,in CCOC(C)=O,0.22
same,photoluminescence quantum yield,in CO,0.06
CCOC(=O)c1cc(C(=O)O)nc2cc(OC)ccc12,photoluminescence quantum yield,in CCO,0.15
CN(C)c1ccc(C2=Nc3scc(-c4ccccc4)[n+]3[B-](F)(F)O2)cc1,photoluminescence quantum yield,in C1CCOC1,0.75
same,photoluminescence quantum yield,in CC#N,0.08
same,photoluminescence quantum yield,in Cc1ccccc1,0.94
same,photoluminescence quantum yield,in ClCCl,0.89
Nc1nc(/C=C/c2ccc(N(c3ccccc3)c3ccccc3)cc2)cc(/C=C/c2ccc(N(c3ccccc3)c3ccccc3)cc2)n1,photoluminescence quantum yield,in Cc1ccccc1,0.88
same,photoluminescence quantum yield,in ClC(Cl)Cl,0.73
Cc1cccc(C2=CC3=C(c4c(C)cc(C)cc4C)c4cc(-c5cccc(C)c5)c(-c5cccc(C)c5)n4[B-](F)(F)[N+]3=C2c2cccc(C)c2)c1,photoluminescence quantum yield,in C1CCCCC1,0.41
same,photoluminescence quantum yield,in C1CCOC1,0.33
same,photoluminescence quantum yield,in CC#N,0.24
same,photoluminescence quantum yield,in Cc1ccccc1,0.44
same,photoluminescence quantum yield,in ClCCl,0.3
CN(C)c1ccc(-c2cccc3nsnc23)cc1,photoluminescence quantum yield,in ClCCl,0.47
C(=C\c1cc(/C=C/c2ccc(N(c3ccccc3)c3ccccc3)cc2)ncn1)/c1ccc(N(c2ccccc2)c2ccccc2)cc1,photoluminescence quantum yield,in ClCCl,0.55
c1ccc(/C(=C(\c2ccccc2)c2cc(-c3ccc(-c4ccccc4)cc3)ccc2-c2ccc(-c3ccccc3)cc2)c2cc(-c3ccc(-c4ccccc4)cc3)ccc2-c2ccc(-c3ccccc3)cc2)cc1,photoluminescence quantum yield,in C1CCOC1,0.32
CCC1=C(C)C2=Cc3c4ccccc4c4n3[B-](c3ccc(OC)cc3)(Oc3ccccc3-4)[N+]2=C1C (stereo unspecified),photoluminescence quantum yield,in CC#N,0.67
same,photoluminescence quantum yield,in CCCCCC,0.71
same,photoluminescence quantum yield,in Cc1ccccc1,0.68
same,photoluminescence quantum yield,in ClCCl,0.7
CCN(CC)c1ccc2cc(-c3ccc(-c4ccc5ccc6c(-c7ccc(-c8cc9ccc(N(CC)CC)cc9oc8=O)cc7)ccc7ccc4c5c76)cc3)c(=O)oc2c1,photoluminescence quantum yield,in ClC(Cl)Cl,0.893
c1ccc([B-]23NC(C4CCCCC4)=Nc4cccc([n+]42)N=C(C2CCCCC2)N3)cc1,photoluminescence quantum yield,in ClCCl,0.1
COC(=O)/C(C#N)=c1/cc/c(=c2/cc/c(=C(\C#N)C(=O)OC)s2)s1,photoluminescence quantum yield,in Cc1ccccc1,0.0035
O=P1(c2ccccc2)c2ccc(N3c4ccccc4Sc4ccccc43)cc2-c2cc(N3c4ccccc4Sc4ccccc43)ccc21,photoluminescence quantum yield,in Cc1ccccc1,0.59
same,photoluminescence quantum yield,[1],0.53
CSc1sc(C(C)=O)c2nn[nH]c(=O)c12,photoluminescence quantum yield,in C1CCOC1,0.015
same,photoluminescence quantum yield,in CC#N,0.017
same,photoluminescence quantum yield,in CCO,0.0091
same,photoluminescence quantum yield,in CN(C)C=O,0.0047
same,photoluminescence quantum yield,in CO,0.0077
same,photoluminescence quantum yield,in CS(C)=O,0.0048
CC1=CC(C)=[N+]2C1=C(c1ccc(-c3ccc(O)cc3)s1)c1c(C)cc(C)n1[B-]2(F)F,photoluminescence quantum yield,in Cc1ccccc1,0.069
c1ccc2nc3cccc(-c4ccc(-n5c6ccccc6c6ccccc65)cc4)c3cc2c1,photoluminescence quantum yield,in CC#N,0.325
same,photoluminescence quantum yield,in CCCCCC,0.0319
same,photoluminescence quantum yield,in CCOCC,0.102
same,photoluminescence quantum yield,in ClCCl,0.253
CCCCCCCCOC(=O)c1ccc(-c2cc3ccc4cc(-c5ccc(C(=O)OCCCCCCCC)cc5)cc5ccc(c2)c3c45)cc1,photoluminescence quantum yield,in Cc1ccccc1,0.33
CC(C)[Si](C#Cc1c2ccccc2c(C#C[Si](C(C)C)(C(C)C)C(C)C)c2nc3c(nc12)Cc1ccccc1-3)(C(C)C)C(C)C,photoluminescence quantum yield,in CCCCCC,0.47
Oc1ccc(Br)cc1-c1nc2c(c3c1-c1ccccc1CC3)-c1ccccc1CC2,photoluminescence quantum yield,in ClCCl,0.01
c1csc(-c2ccc(-c3cccs3)c3nsnc23)c1,photoluminescence quantum yield,in ClC(Cl)Cl,0.59
c1ccc(-c2ccc(-c3ccc(-c4ccccc4)cc3)cc2)cc1,photoluminescence quantum yield,in C1COCCO1,0.71
c1ccc(-c2c3ccccc3c(-c3cncnc3)c3ccccc23)cc1,photoluminescence quantum yield,in CCO,0.4
same,photoluminescence quantum yield,in ClCCl,0.51
CCCn1c2cccc3c2[c+]2c4c1cccc4n(CCC)c1cccc(c12)n3CCC,photoluminescence quantum yield,in CC#N,0.16
same,photoluminescence quantum yield,in CO,0.2
same,photoluminescence quantum yield,in ClCCl,0.16
c1ccc2c(c1)c1ccc3cccc4c3c1c2c1c2cccc3ccc5c6ccccc6c(c5c32)c41,photoluminescence quantum yield,in ClCCl,0.0031
CC(C)(C)c1cc2c(c(C(C)(C)C)c1)O[B-]1(c3ccc([B-]45OC(c6ccccc6)=N[N+]4=Cc4cc(C(C)(C)C)cc(C(C)(C)C)c4O5)cc3)OC(c3ccccc3)=N[N+]1=C2 (stereo unspecified),photoluminescence quantum yield,in C1CCOC1,0.001
CCOC(=O)C1=C(C(=O)OCC)C2(c3cc(Cl)ccc3-c3ccc(Cl)cc32)C2(/C=C/c3ccccc3)c3cc(OC)c(OC)cc3CCN12 (stereo unspecified),photoluminescence quantum yield,in ClCCl,0.00196
COc1ccccc1-c1nc2c([nH]1)C1=CC(=O)S[C@]1(C)[C@@]1(C)SC(=O)C=C21,photoluminescence quantum yield,in CC#N,0.11
CN(C)c1ccc(-c2ccc(-c3ccc(N(C)C)cc3)c3nc(-c4ccccc4)c(-c4ccccc4)nc23)cc1,photoluminescence quantum yield,in ClC(Cl)Cl,0.3
CCCCCCC(CCCCCC)N1C(=O)c2cccc3c(-c4cc(OC)c(OC)c(OC)c4)ccc(c23)C1=O,photoluminescence quantum yield,in CCCCCC,0.41
same,photoluminescence quantum yield,in CCCCCCCCCCCCCC,0.51
same,photoluminescence quantum yield,in CCCCCCCCCCCO,0.26
same,photoluminescence quantum yield,in CCCCO,0.022
same,photoluminescence quantum yield,in CN(C)C=O,0.0065
same,photoluminescence quantum yield,in Cc1ccccc1,0.71
same,photoluminescence quantum yield,in ClC(Cl)Cl,0.65
O=C([O-])c1ccc(C(=O)[O-])c2cc3ccccc3cc12,photoluminescence quantum yield,in CN(C)C=O,0.066
C[Si]1(C)O[Si](C)(C)c2cc3c(-c4ccc(F)cc4)c4ccccc4nc3cc21,photoluminescence quantum yield,in ClCCl,0.39
CC[N+](CC)=c1ccc2c(-c3ccccc3C(=O)O)c3cc4c(-c5ccccc5C(=O)O)c5ccc(=[N+](CC)CC)cc-5oc4cc3oc-2c1,photoluminescence quantum yield,in ClC(Cl)Cl,0.17
Cc1ccc(C2=C3C=CC(Cl)=[N+]3[B-](F)(F)n3c(Cl)ccc32)cc1,photoluminescence quantum yield,in C1CCCCC1,0.33
same,photoluminescence quantum yield,in C1CCOC1,0.3
same,photoluminescence quantum yield,in CC#N,0.29
same,photoluminescence quantum yield,in CCOC(C)=O,0.32
same,photoluminescence quantum yield,in CO,0.27
same,photoluminescence quantum yield,in Cc1ccccc1,0.59
same,photoluminescence quantum yield,in ClC(Cl)Cl,0.63
CN(C)c1ccc(-c2cc(-c3ccc(C#N)cc3)nc(-c3ccccc3)n2)cc1,photoluminescence quantum yield,in ClC(Cl)Cl,0.44
COc1ccc(-c2cc(-c3ccccc3)c3n2[B-](F)(F)[N+]2=C4C=NC=CN4[B-](F)(F)[N+]2=C3)cc1,photoluminescence quantum yield,in ClCCl,0.46
C(=C\c1nc2c(c(N3CCOCC3)n1)CCCC2)/c1ccccc1,photoluminescence quantum yield,in ClCCl,0.023
CC1=C(c2cccs2)C2=Cc3c(-c4cccs4)c(C)c(C)n3[B-](F)(F)[N+]2=C1C,photoluminescence quantum yield,in CC#N,0.52
COc1ccc(C2=C3C(C)=CC(C)=[N+]3[B-](F)(F)n3c(/C=C/c4ccc(N(C)C)cc4)cc(C)c32)cc1,photoluminescence quantum yield,in C1CCCCC1,0.97
same,photoluminescence quantum yield,in C1CCOC1,0.56
same,photoluminescence quantum yield,in C1COCCO1,0.77
same,photoluminescence quantum yield,in CC1CCCCC1,0.86
same,photoluminescence quantum yield,in CC#N,0.09
same,photoluminescence quantum yield,in CC(C)=O,0.27
same,photoluminescence quantum yield,in CC(C)OC(C)C,0.87
same,photoluminescence quantum yield,in CCC#N,0.19
same,photoluminescence quantum yield,in CCCC#N,0.27
same,photoluminescence quantum yield,in CCCCO,0.59
same,photoluminescence quantum yield,in CCCCOCCCC,0.91
same,photoluminescence quantum yield,in CCOC(C)=O,0.59
same,photoluminescence quantum yield,in CCOCC,0.93
same,photoluminescence quantum yield,in CN(C)C=O,0.08
same,photoluminescence quantum yield,in CO,0.16
same,photoluminescence quantum yield,in CS(C)=O,0.056
same,photoluminescence quantum yield,in Cc1ccccc1,0.85
same,photoluminescence quantum yield,in ClC(Cl)Cl,0.82
Cc1cc(C)c(C2=C3C=CC=[N+]3[B-]3(c4ccc5ccc6cccc7ccc4c5c67)Oc4cc(O)cc5c6ccc(C)cc6c6cc2n3c6c45)c(C)c1 (stereo unspecified),photoluminescence quantum yield,in ClC(Cl)Cl,0.24
COc1cccc(C2=CC3=C(c4c(C)cc(C)cc4C)c4cc(-c5cccc(OC)c5)c(-c5cccc(OC)c5)n4[B-](F)(F)[N+]3=C2c2cccc(OC)c2)c1,photoluminescence quantum yield,in C1CCCCC1,0.86
same,photoluminescence quantum yield,in C1CCOC1,0.76
same,photoluminescence quantum yield,in CC#N,0.65
same,photoluminescence quantum yield,in Cc1ccccc1,0.78
same,photoluminescence quantum yield,in ClCCl,0.83
N#CC1=CC(/C=C/c2ccccc2)=CC(C#N)=P1(c1ccccc1)c1ccccc1,photoluminescence quantum yield,in ClC(Cl)Cl,0.13
Cc1cc(C)c(B(c2ccc(-c3nc4c5ccccc5c5ccccc5c4[nH]3)cc2)c2c(C)cc(C)cc2C)c(C)c1,photoluminescence quantum yield,in C1CCOC1,0.79
same,photoluminescence quantum yield,in CC(C)=O,0.71
same,photoluminescence quantum yield,in CS(C)=O,0.76
same,photoluminescence quantum yield,in Cc1ccccc1,0.92
same,photoluminescence quantum yield,in ClCCl,0.8
C(#Cc1ccccc1)C(C#Cc1ccccc1)=Cc1ccc2cc(C=C(C#Cc3ccccc3)C#Cc3ccccc3)ccc2c1,photoluminescence quantum yield,in ClC(Cl)Cl,0.49
COc1ccc(C2=CC(c3cc(OC)cc(OC)c3)=[O+][B-](F)(F)O2)cc1,photoluminescence quantum yield,in CC#N,0.02
same,photoluminescence quantum yield,in CC(C)=O,0.04
same,photoluminescence quantum yield,in CCCCCC,0.25
same,photoluminescence quantum yield,in Cc1ccccc1,0.19
same,photoluminescence quantum yield,in ClCCl,0.08
C1=[N+]2N=C(c3ccccc3)O[B-]2(c2ccc([B-]34OC(c5ccccc5)=N[N+]3=Cc3c(ccc5ccccc35)O4)cc2)Oc2ccc3ccccc3c21 (stereo unspecified),photoluminescence quantum yield,in C1CCOC1,0.002
CC1=[N+]2C(=C(c3ccccc3)c3ccc(C)n3[B-]2(F)F)C=C1,photoluminescence quantum yield,in C1CCCCC1,0.29
same,photoluminescence quantum yield,in C1CCOC1,0.25
same,photoluminescence quantum yield,in CC#N,0.17
same,photoluminescence quantum yield,in CCOC(C)=O,0.25
same,photoluminescence quantum yield,in CO,0.19
same,photoluminescence quantum yield,in Cc1ccccc1,0.42
same,photoluminescence quantum yield,in ClC(Cl)Cl,0.38
O=c1c2ccc(-c3ccc(N(c4ccccc4)c4ccccc4)cc3)cc2sc2cccc(-c3ccc(N(c4ccccc4)c4ccccc4)cc3)c12,photoluminescence quantum yield,[1],0.025
Cc1cc(C)c(B(c2cc(-c3ccc(C(C)(C)C)cc3)sc2-c2sc(-c3ccc(C(C)(C)C)cc3)cc2P(=O)(c2ccccc2)c2ccccc2)c2c(C)cc(C)cc2C)c(C)c1,photoluminescence quantum yield,in CO,0.54
